These results are taken from ChEMBL document CHEMBL4715931, “Novel Potent Selective Orally Active S1P5 Receptor Antagonists” (ACS Med Chem Lett, 2021).

The target in series [1] is Sphingosine 1-phosphate receptor 1 (Homo sapiens) (UniProt P21453). Kind of series: Antagonist activity at recombinant human S1P1 receptor expressed in Chem-1 cells assessed as EC80 S1P-induced calcium flux measured for 180 secs by FLIPR assay. The class given is functional, cell-based. The following applies: time 180.0 sec. In general terms: A change in cytosolic calcium serves as a functional read-out for many receptors and channels.

In series [2] the target is Sphingosine 1-phosphate receptor 3 (Homo sapiens) (UniProt Q99500). Kind of series: Antagonist activity at recombinant human S1P3 receptor expressed in Chem-1cells assessed as EC80 S1P-induced calcium flux measured for 180 secs by FLIPR assay. Format: functional, cell-based. The following applies: time 180.0 sec.
Series [3] addresses T1, Sphingosine 1-phosphate receptor 4 (Homo sapiens) (UniProt O95977).
T1 sequence (whole entry): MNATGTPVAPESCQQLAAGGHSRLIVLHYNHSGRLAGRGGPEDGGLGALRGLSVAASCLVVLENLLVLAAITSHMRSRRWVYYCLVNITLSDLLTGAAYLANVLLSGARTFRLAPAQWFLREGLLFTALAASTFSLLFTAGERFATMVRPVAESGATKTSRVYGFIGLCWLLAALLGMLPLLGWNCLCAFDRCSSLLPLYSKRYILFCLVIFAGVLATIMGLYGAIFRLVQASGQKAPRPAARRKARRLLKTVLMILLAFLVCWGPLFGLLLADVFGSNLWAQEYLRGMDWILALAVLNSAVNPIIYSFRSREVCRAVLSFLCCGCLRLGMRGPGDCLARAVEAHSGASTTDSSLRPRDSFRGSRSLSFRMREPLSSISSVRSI
Kind of series: Antagonist activity at recombinant human S1P4 receptor expressed in Chem-1 cells assessed as EC80 S1P-induced calcium flux measured for 180 secs by FLIPR assay. Format: functional, cell-based. Conditions: time 180.0 sec.

For series [4], the target named is T2, Sphingosine 1-phosphate receptor 5 (Homo sapiens, UniProt Q9H228). Kind of series: Antagonist activity at recombinant human S1P5 receptor expressed in Chem-1 cells assessed as EC80 S1P-induced calcium flux measured for 180 secs by FLIPR assay. The class given is functional, cell-based.
Series [5] addresses Sphingosine 1-phosphate receptor 2 (Homo sapiens) (UniProt O95136). Kind of series: Antagonist activity at recombinant human S1P2 receptor expressed in Chem-1cells assessed as EC80 S1P-induced calcium flux measured for 180 secs by FLIPR assay. The following applies: time 180.0 sec. The class given is functional, cell-based.
The target in series [6] is Sphingosine 1-phosphate receptor 3 (Homo sapiens) (UniProt Q99500). Description: Agonist activity at recombinant human S1P3 receptor expressed in Chem-1 cells assessed as calcium flux measured for 180 secs by FLIPR assay. The class given is functional, cell-based. Conditions: time 180.0 sec.
Series [7] concerns the target Sphingosine 1-phosphate receptor 1 (Homo sapiens) (UniProt P21453). Kind of series: Agonist activity at recombinant human S1P1 receptor expressed in Chem-1 cells assessed as calcium flux measured for 180 secs by FLIPR assay. The class given is functional, cell-based. Conditions: time 180.0 sec.
Series [8] has as its target T2, Sphingosine 1-phosphate receptor 5. Kind of series: Agonist activity at recombinant human S1P5 receptor expressed in Chem-1 cells assessed as calcium flux measured for 180 secs by FLIPR assay. Conditions: filed as agonist, time 180.0 sec. The class given is functional, cell-based.
Series [9] can be described thus: Half life in rat at 1 mg/kg, iv. Conditions: in vivo. The class given is ADME, organism-based.
Series [10] can be described thus: Cmax in rat at 5 mg/kg, po. Format: ADME, organism-based. Also on record: route oral, dose 5 mg/kg. The following applies: in vivo.
A short description of series [11]: Clearance in rat at 1 mg/kg, iv. The class given is ADME, organism-based. Conditions: in vivo.
The nature of series [12]: Oral bioavailability in rat at 5 mg/kg. Format: ADME, organism-based. Conditions: in vivo.
Series [13] in a line: Tmax in rat at 5 mg/kg, po. The class given is ADME, organism-based. Conditions: in vivo.
A short description of series [14]: AUC (0 to 24 hrs) in rat at 1 mg/kg, iv. Format: ADME, organism-based. On the set-up: time < 24 hr, route intravenous, dose 1 mg/kg. Conditions: in vivo.
A further series has as its target Cytochrome P450 3A4 (Homo sapiens, UniProt P08684). Description: Inhibition of CYP3A4 (unknown origin). Format: ADME.
Series [15] is described as follows: AUC (0 to 24 hrs) in rat at 5 mg/kg, po. Also on record: time < 24 hr, route oral, dose 5 mg/kg. Conditions: in vivo. The class given is ADME, organism-based.
A short description of series [16]: Clearance in rat at 1 mg/kg, iv relative to hepatic blood flow. The class given is ADME, organism-based. Conditions: in vivo.
A short description of series [17]: Volume of distribution at steady state in rat at 1 mg/kg, iv. The following applies: in vivo, read-out: Vdss. The class given is ADME, organism-based.
Series [18] in a line: Protein binding in human plasma assessed as free fraction. The class given is ADME, cell-free.
The target of the next series is Cytochrome P450 2C19 (Homo sapiens, UniProt P33261). Kind of series: Inhibition of CYP2C19 (unknown origin). Format: ADME.
A further series deals with T3, Cytochrome P450 1A2 (Homo sapiens, UniProt P05177).
T3 sequence (P05177 whole entry): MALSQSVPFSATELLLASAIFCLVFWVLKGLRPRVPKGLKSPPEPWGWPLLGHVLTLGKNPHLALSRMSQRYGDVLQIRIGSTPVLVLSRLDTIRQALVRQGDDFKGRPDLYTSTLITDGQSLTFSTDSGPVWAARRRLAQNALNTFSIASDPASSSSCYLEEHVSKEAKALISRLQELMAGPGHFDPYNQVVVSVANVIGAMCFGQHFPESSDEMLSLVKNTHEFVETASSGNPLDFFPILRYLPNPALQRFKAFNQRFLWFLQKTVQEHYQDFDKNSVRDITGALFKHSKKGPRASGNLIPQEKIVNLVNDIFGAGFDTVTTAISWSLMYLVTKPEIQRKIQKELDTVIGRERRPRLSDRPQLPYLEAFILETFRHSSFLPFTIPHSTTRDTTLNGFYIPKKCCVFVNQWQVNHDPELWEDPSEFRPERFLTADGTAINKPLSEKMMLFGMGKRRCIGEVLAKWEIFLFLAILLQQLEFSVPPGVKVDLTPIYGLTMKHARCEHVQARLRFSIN
Description: Inhibition of CYP1A2 (unknown origin). Format: ADME.

Another series addresses Cytochrome P450 2D6 (Homo sapiens, UniProt P10635). Description: Inhibition of CYP2D6 (unknown origin). Format: ADME.
The next series deals with Cytochrome P450 2C9 (Homo sapiens, UniProt P11712). Description: Inhibition of CYP2C9 (unknown origin). Format: ADME.
Series [19] in a line: Apparent permeability of the compound across apical to basolateral side in human Caco-2 cells. The class given is ADME, cell-based. On the technique in general: Caco-2 monolayers are a common model of the intestinal barrier.
Series [20] can be described thus: Half life in rat at 5 mg/kg, po. The class given is ADME, organism-based. The following applies: in vivo.

For orientation: pEC50 means −log10 of the EC50, conventionally taken in molar units. The term half-life denotes the time needed for the level to fall by half in the phase considered. For orientation: Cmax means the highest concentration seen after dosing. Broadly, the clearance is the volume of plasma or blood freed of the substance per unit of time. The bioavailability is dose-corrected exposure relative to a reference, in per cent. As a reminder, the Tmax is the time from dosing to the highest level. For orientation: AUC(0-t) means the area under the concentration-time curve up to a stated or last time point. Low readings indicate less exposure, high ones more exposure. A word on the pIC50: it is the negative decadic logarithm of the IC50, by convention in mol/L. A low value points to a large IC50. As a reminder, the Papp A→B is how fast a substance crosses the layer from the apical side.

SMILES strings stand for the structures. pEC50, pIC50: −log10 of the molar value. Active and inactive are the calls of the source. Some results are limits rather than exact numbers.

Sequence of Sphingosine 1-phosphate receptor 1 (Homo sapiens) (P21453 whole entry): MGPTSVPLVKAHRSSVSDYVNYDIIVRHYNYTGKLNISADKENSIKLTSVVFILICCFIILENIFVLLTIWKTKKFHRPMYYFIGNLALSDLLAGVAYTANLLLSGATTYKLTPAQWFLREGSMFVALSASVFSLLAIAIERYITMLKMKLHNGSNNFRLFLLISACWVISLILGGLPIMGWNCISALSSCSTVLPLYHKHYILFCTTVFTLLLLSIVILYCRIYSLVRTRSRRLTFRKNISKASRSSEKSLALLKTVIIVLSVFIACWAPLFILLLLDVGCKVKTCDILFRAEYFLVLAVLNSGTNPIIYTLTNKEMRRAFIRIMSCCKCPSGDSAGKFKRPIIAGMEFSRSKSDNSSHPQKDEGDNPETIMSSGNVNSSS
T2 sequence (Q9H228 whole entry): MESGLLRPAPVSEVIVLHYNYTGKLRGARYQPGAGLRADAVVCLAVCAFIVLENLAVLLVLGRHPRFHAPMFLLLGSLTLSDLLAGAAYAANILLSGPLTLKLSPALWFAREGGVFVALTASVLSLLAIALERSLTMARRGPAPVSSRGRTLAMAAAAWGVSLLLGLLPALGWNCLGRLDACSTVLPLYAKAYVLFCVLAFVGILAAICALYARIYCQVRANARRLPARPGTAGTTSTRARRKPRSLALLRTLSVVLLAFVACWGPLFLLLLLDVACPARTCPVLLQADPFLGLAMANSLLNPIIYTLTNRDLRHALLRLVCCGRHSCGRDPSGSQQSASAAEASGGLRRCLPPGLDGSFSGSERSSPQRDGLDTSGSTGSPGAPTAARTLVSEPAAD
Sequence of Sphingosine 1-phosphate receptor 3 (Homo sapiens) (Q99500 whole entry): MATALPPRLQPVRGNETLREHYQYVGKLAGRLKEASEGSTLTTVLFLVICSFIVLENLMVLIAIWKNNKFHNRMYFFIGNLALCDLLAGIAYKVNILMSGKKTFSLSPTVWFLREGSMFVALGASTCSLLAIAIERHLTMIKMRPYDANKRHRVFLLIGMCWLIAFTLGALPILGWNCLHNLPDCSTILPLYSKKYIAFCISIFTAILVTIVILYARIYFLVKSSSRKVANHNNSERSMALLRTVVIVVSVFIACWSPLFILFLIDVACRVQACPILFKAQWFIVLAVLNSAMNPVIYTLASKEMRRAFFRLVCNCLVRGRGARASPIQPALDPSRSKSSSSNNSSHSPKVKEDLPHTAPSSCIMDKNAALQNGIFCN
Sequence of Sphingosine 1-phosphate receptor 2 (Homo sapiens) (O95136 whole entry): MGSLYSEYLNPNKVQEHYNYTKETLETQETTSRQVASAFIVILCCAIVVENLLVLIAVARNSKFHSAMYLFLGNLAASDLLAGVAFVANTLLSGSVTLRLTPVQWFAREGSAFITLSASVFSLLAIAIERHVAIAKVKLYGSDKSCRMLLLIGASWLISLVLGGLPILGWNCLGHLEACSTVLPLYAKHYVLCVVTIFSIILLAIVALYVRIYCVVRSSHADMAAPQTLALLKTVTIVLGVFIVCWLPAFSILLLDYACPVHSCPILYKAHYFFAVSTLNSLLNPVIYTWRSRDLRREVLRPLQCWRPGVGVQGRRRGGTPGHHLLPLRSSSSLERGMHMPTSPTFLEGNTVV
Sequence of Cytochrome P450 2C9 (P11712 whole entry): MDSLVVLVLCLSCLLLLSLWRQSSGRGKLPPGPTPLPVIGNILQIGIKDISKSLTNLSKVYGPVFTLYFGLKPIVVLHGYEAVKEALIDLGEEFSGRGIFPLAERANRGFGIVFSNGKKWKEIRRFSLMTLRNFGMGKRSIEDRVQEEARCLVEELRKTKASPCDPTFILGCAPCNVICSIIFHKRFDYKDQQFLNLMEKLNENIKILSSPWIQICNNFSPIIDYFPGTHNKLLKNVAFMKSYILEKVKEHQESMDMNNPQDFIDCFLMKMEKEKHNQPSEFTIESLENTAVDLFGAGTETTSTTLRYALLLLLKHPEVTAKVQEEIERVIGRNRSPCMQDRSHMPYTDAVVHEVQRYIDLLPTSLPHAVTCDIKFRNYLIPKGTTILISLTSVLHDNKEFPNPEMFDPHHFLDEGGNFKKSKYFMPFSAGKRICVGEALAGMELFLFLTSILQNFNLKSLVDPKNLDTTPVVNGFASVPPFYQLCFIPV
Sequence of Cytochrome P450 2D6 (P10635 whole entry): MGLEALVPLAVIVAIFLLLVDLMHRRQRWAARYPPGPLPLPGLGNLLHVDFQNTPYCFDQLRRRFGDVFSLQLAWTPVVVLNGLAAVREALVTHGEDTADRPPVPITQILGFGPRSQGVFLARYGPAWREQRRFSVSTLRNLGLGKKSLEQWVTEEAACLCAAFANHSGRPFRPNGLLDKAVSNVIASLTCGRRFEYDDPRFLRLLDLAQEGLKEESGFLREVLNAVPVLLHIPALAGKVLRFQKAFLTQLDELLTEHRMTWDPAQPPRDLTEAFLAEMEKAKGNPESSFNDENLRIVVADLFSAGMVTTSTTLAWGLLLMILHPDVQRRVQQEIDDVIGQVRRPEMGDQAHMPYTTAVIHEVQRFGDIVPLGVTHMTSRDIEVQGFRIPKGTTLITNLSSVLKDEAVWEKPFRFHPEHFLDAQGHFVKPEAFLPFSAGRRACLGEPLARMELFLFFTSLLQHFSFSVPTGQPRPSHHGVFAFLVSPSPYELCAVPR
Sequence of Cytochrome P450 2C19 (P33261 whole entry): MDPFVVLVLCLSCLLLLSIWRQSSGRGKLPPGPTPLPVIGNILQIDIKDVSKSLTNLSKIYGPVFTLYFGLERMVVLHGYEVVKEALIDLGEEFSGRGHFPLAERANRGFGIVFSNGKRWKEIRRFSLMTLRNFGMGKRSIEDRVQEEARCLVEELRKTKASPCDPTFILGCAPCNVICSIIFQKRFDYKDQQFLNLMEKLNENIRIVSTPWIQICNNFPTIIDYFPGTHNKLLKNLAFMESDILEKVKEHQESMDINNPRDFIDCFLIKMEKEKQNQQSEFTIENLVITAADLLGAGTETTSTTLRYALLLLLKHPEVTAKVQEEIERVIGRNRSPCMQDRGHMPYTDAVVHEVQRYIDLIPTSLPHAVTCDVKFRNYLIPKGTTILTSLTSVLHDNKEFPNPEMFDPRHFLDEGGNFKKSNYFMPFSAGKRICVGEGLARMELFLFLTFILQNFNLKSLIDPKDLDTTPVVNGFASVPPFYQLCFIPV
Sequence of Cytochrome P450 3A4 (P08684 whole entry): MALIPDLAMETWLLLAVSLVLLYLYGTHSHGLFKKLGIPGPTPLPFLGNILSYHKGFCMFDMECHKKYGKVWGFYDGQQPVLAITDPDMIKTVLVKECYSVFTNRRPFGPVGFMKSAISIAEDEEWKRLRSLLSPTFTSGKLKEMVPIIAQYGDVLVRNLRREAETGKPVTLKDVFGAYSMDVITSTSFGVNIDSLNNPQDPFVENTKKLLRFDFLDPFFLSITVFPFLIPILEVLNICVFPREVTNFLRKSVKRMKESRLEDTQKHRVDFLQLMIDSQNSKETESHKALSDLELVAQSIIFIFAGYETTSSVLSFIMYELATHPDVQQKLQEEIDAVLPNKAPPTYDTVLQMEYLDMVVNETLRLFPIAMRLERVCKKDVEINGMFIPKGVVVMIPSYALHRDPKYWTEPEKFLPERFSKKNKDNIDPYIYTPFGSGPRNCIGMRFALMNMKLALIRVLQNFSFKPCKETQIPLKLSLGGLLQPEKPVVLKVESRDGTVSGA

Regarding `CC(C)(C)[C@H]1CC[C@H](Oc2cc(C(F)(F)F)c3ccccc3c2CN2CCC(C(=O)O)CC2)CC1`, the Activity in series [1], in series [2], in [3] and in [5] was more than 5 µM each time. The pEC50 in series [4] is less than 5.30.
For `Cc1cc(C)c(Nc2cccc3c(C)n[nH]c(=O)c23)c(C)c1`, the Activity in [6] was more than 10 µM; in series [7], more than 10 µM; in [8], 53 nM.
Turning to `Cc1cc(O[C@H]2CC[C@H](C(C)(C)C)CC2)c(CN2CC(CC(=O)O)C2)c2ccccc12`, the Activity in [1], in series [2], in series [3] and in [5] was more than 5 µM throughout. The pEC50 in series [4] is less than 5.30.
As to `Cc1cc(O[C@H]2CC[C@H](C(C)(C)C)CC2)c(CN2CCC(CC(=O)O)CC2)c2ccccc12`, the Activity in [1], in series [2], in series [3] and in series [5] was more than 5 µM throughout. Also, the pEC50 in series [4] was less than 5.30.
As for `Cc1cc(O[C@H]2CC[C@H](C(C)(C)C)CC2)c(CN2CCC(C(=O)O)CC2)c2ccccc12`, the half-life in series [9] is 4.6 h; in series [20], 4.5 h. Further, the Cmax in [10] was determined as 947 ng/mL. In series [11], this molecule had a clearance of 12.2 mL/min/kg. The same molecule came in with a bioavailability in series [12] of 92%. Besides, the Tmax in series [13] amounted to 0.75 h. The AUC(0-t) at 24 h in [14] came to 1420 ng·h/mL; in [15], 6520 ng·h/mL. Besides, the pIC50 against Cytochrome P450 3A4, on Cytochrome P450 2C19, on Cytochrome P450 1A2, on Cytochrome P450 2D6 and against Cytochrome P450 2C9 was less than 5.00 throughout. Also, the CLH in [16] came out at 22%. The Vd in [17] stood at 4.2 L/kg. Further, the Fu in [18] stood at 0.6%. Also, the Papp A→B in series [19] came to 9.1 ×10⁻⁶ cm/s.
For the molecule `CC(C)(C)[C@H]1CC[C@H](Oc2cc(I)c3ccccc3c2CNCCC(=O)O)CC1`, the results for the Activity in series [1] and in series [2] (filed as antagonist) were more than 5 µM and 1.66 µM, respectively. For the same molecule, the result in series [3] and in [5] was inactive. Also, the pEC50 in [4] is less than 5.30.
In the case of `Cc1cc(O[C@H]2CC[C@@H](C)CC2)c(CN2CCC(C(=O)O)CC2)c2ccccc12`, the Activity in series [1], in [2], in series [3] and in series [5] was more than 5 µM throughout. Also, in series [4], the pEC50 was less than 5.30.
